Patent US4923853A, “Process for enhancing the activity of plant protecting agents by using cyclodextrin” (Chinoin Gyogyszer Es Vegyeszeti Termekek Gyara R.T., priority 1985, dated 1990)
Values after ≈ are worked out from the molar mass of the structure shown.

What was measured:
[1] = cited from earlier work; for duration of pesticide activity: on forming complexes with cyclodextrin
[2] = cited from earlier work; for volatility of the active ingredient: on forming complexes with cyclodextrin
[3] = tested on: test fungi; test: Fungicidal activity of metomeclan with cyclodextrin, general statement; format: cell-based
Experimental: The following tests substantiate the surprising synergism between known fungicides and β-cyclodextrin. Stable, highly dispersed aqueous suspensions of the test materials are added to agar nutrient media in the desired concentration (0.1-200 μg/ml), whereupon the nutrient media are poured into Petri-dishes. Mycelium discs are cut out from the surfacial cultures of the test fungi and the discs are placed into the Petri-dishes containing the test materials. Incubation is carried out in thermostate whereupon the increase of the diameter of the colonies is measured and compared to that of the control. The tests are carried out in three replicates.

[4] = cited from earlier work
[5] = tested on: wheat powdery mildew; test: In vivo test on wheat-powdery mildew (host-parasite)
Experimental: In vivo tests are carried out on wheat-powdery mildew (host-parasite) by using a combination of phenarimol [2,4'-dichloro-α--(pyrimidine-5-yl)-diphenyl-ethanol] and β-cyclodextrin. The tests are carried out in three replicates in phytotrone under usual experimental system and environmental conditions (20° C., humidity 90%, light intensity 9000 lux.) In culturing dishes (diameter 11 cm) as average 160 plants (5-6 cm stage) are treated with 8 ml of stable aqueous suspensions comprising the test material. The inhibition activity is calculated on the basis of the Hinfner-Papp formula by using the infectedness index.

[6] = Solubility of benomyl under the effect of β-cyclodextrin (shaking in water, UV); format: physicochemical; settings: water 25° C.; for solubility thermodynamic at 10 min / solubility thermodynamic at 20 min / solubility thermodynamic at 40 min / solubility thermodynamic at 80 min / solubility thermodynamic at 2 h: water, read-out: Amount of dissolved benomyl
Experimental: (Benomyl and benomyl+β-cyclodextrin, respectively, are shaken in water at 25° C., the samples are filtered and the dissolved benomyl contents of the filtrates are determined by UV spectrophotometry).

[7] = Solubility of benomyl from various materials incl. Fundazol under the effect of β-cyclodextrin; format: physicochemical
Experimental: Benomyl is put on the market under the commercial name Fundazol 50 WP; benomyl active ingredient content: 50%. In Table 3 the solubility data of benomyl, a mixture of benomyl and cyclodextrin, Fundazol 50 WP, and a mixture of Fundazol 50 WP and cyclodextrin are shown. In each experiment […] of the test substance are weighed in and shaken at 25° C. Benomyl is a 100% active ingredient; the benomyl content of the benomyl/cyclodextrin mixture amounts to 17.3%; the benomyl content of Fundazol 50 WP is 50%; the benomyl content of the mixture of Fundazol 50 WP and cyclodextrin amounts to 8.65%.
2000 μg/ml of solid material are weighed in which corresponds to the following amounts of benomyl:
in the case of benomyl: 2000 μg/ml
in the case of benomyl+β-CD: 350 μg/ml++1650 μg β-CD
in the case of Fundazol 50 WP: 1000 μg/ml
in the case of Fundazol 50 WP+β-CD: 175 μg/ml++1650 μg β-CD.

[8] = tested on: Alternaria tenuis; test: Fungistatical effect of β-cyclodextrin (agar, colony diameter); format: cell-based; settings: Alternaria alternata
Experimental: (§1) The fungistatical activity of cyclodextrins has never been disclosed in prior art.
(§2) Agar nutrient media comprising 0.1-0.2 -0.5-1.0-2.0-5.0-10.0-20.0-100.0- 200.0-400.0-800.0-1200.0-1500.0-2000.0-3000.0 μg β-cyclodextrin/ml, respectively, are prepared in Petri-dishes. Mycelium discs are cut out from surface cultures of three test fungi and are placed onto the agar nutrient media in the Petri-dishes. Incubation is carried out in a thermostate whereupon the increase of the diameter of the colonies is determined and compared to that of the control. The morphology of the colonies and the diffusion of the dye-substance produced by the fungi into the nutrient medium are evaluated as well.
(§3) The fungistatical effect of cyclodextrin manifests itself in the changed morphology, structure and color of the colonies and in the amount of the dyestuff penetrated into the nutrient medium. However at higher dose range the effect of cyclodextrin is already of a quantitative nature, thus the decrease of the diameter of the colonies can be measured and the amount of the biomass formed is reduced to a rate which can be evaluated (Table 1).

[9] = tested on: Rhizoctonia solani; test: as above; format: cell-based
Experimental: as §1, §2, §3

[10] = tested on: Sclerotinia sclerotiorum; test: as above; format: cell-based
Experimental: as §1, §2, §3

[11] = tested on: three test fungi; test: Fungistatical effect of β-cyclodextrin, morphology and surfacial cultures; format: cell-based; settings: surfacial cultures
Experimental: as §2, §3

[12] = 10 minutes, weighed in 1000 μg/ml benomyl, or 170 μg benomyl + 830 μg/ml β-CD
[13] = 10 minutes, weighed in 5000 μg/ml benomyl, or 850 μg benomyl + 4150 μg/ml β-CD
[14] = 20 minutes, weighed in 1000 μg/ml benomyl, or 170 μg benomyl + 830 μg/ml β-CD
[15] = 20 minutes, weighed in 5000 μg/ml benomyl, or 850 μg benomyl + 4150 μg/ml β-CD
[16] = 40 minutes, weighed in 1000 μg/ml benomyl, or 170 μg benomyl + 830 μg/ml β-CD
[17] = 40 minutes, weighed in 5000 μg/ml benomyl, or 850 μg benomyl + 4150 μg/ml β-CD
[18] = 80 minutes, weighed in 1000 μg/ml benomyl, or 170 μg benomyl + 830 μg/ml β-CD
[19] = 80 minutes, weighed in 5000 μg/ml benomyl, or 850 μg benomyl + 4150 μg/ml β-CD
[20] = 120 minutes, weighed in 1000 μg/ml benomyl, or 170 μg benomyl + 830 μg/ml β-CD
[21] = 120 minutes, weighed in 5000 μg/ml benomyl, or 850 μg benomyl + 4150 μg/ml β-CD

Question: For `O=P(O)(O)CCCl`, which “ethylene release on contacting with plant tissue” value ([1]; complex with cyclodextrin) is on record?
Answer: long-lasting process

Question: Which “stability against light and oxygen” value ([2]; cyclodextrin complexes) does the source give for `COP(=S)(OC)Oc1ccc([N+](=O)[O-])cc1` [Methyl-parathion, 0,0-dimethyl-0-4-nitrophenyl-phosphorothioate] here?
Answer: increase the stability against light and oxygen to a considerable extent

Question: Which “activity on addition of cyclodextrin (in words)” value [3] does the source give for `COCC1CC(=O)N(c2cc(Cl)cc(Cl)c2)C1=O` (centres unmarked) [Metomeclan, 1-(3,5-dichlorophenyl)-3-methoxymethyl-pyrrolidine-2,5-dione] here?
Answer: significantly increased

Question: And the solubility in water [4]?
Answer: insoluble in water

Question: Which Inhibition activity % ([5]; phenarimol concentration 0.625 μg/ml) does the source give for `OC(c1ccc(Cl)cc1)(c1cncnc1)c1ccccc1Cl` (stereo not drawn) [Phenarimol, 2,4'-dichloro-α-(pyrimidine-5-yl)--diphenyl-methanol] here?
Answer: 29.4%

Question: What about the Inhibition activity % ([5]; phenarimol concentration 1.25 μg/ml) of the same molecule?
Answer: 73.5%

Question: What about the Inhibition activity % ([5]; phenarimol concentration 2.5 μg/ml) of the same molecule?
Answer: 87.2%

Question: What about the Inhibition activity % ([5]; phenarimol concentration 5 μg/ml) of the same molecule?
Answer: 99.4%

Question: And the Inhibition activity % ([5]; phenarimol concentration 10 μg/ml)?
Answer: 100.0%

Question: With `CCCCNC(=O)n1c(NC(=O)OC)nc2ccccc21` [benomyl, 1-butylcarbamoyl-benzimidazole-2-methyl-carbamate] as the molecule, how does the “Amount of dissolved benomyl, %” value [6, 12] read?
Answer: 0.2%

Question: And the “Amount of dissolved benomyl, %” value [6, 13]?
Answer: 0.07%

Question: What about the “Amount of dissolved benomyl, %” value [6, 14] of the same molecule?
Answer: 0.3%

Question: What about the “Amount of dissolved benomyl, %” value [6, 15] of the same molecule?
Answer: 0.08%

Question: And the “Amount of dissolved benomyl, %” value [6, 16]?
Answer: 0.45%

Question: And the “Amount of dissolved benomyl, %” value [6, 17]?
Answer: 0.12%

Question: What about the “Amount of dissolved benomyl, %” value [6, 18] of the same molecule?
Answer: 0.5%

Question: And the “Amount of dissolved benomyl, %” value [6, 19]?
Answer: 0.16%

Question: What about the “Amount of dissolved benomyl, %” value [6, 20] of the same molecule?
Answer: 0.5%

Question: What about the “Amount of dissolved benomyl, %” value [6, 21] of the same molecule?
Answer: 0.19%

Question: And the solubility thermodynamic at 10 min [6, 12]?
Answer: 2 µg/mL

Question: And the solubility thermodynamic at 10 min [6, 13]?
Answer: 3.5 µg/mL

Question: And the solubility thermodynamic at 20 min [6, 14]?
Answer: 3 µg/mL

Question: What about the solubility thermodynamic at 20 min [6, 15] of the same molecule?
Answer: 4 µg/mL

Question: And the solubility thermodynamic at 40 min [6, 16]?
Answer: 4.5 µg/mL

Question: What about the solubility thermodynamic at 40 min [6, 17] of the same molecule?
Answer: 6 µg/mL

Question: What about the solubility thermodynamic at 80 min [6, 18] of the same molecule?
Answer: 5 µg/mL

Question: What about the solubility thermodynamic at 80 min [6, 19] of the same molecule?
Answer: 8 µg/mL

Question: And the solubility thermodynamic at 2 h [6, 20]?
Answer: 5 µg/mL

Question: What about the solubility thermodynamic at 2 h [6, 21] of the same molecule?
Answer: 9.5 µg/mL

Question: And the solubility thermodynamic at 10 min ([7]; 10 minutes, shaking in water at 25° C., read-out: Dissolved benomyl)?
Answer: 2 µg/mL (≈ 6.89 µM)

Question: What about the solubility thermodynamic at 20 min ([7]; 20 minutes, shaking in water at 25° C., read-out: Dissolved benomyl) of the same molecule?
Answer: 5 µg/mL (≈ 17.2 µM)

Question: And the solubility thermodynamic at 40 min ([7]; 40 minutes, shaking in water at 25° C., read-out: Dissolved benomyl)?
Answer: 6 µg/mL (≈ 20.7 µM)

Question: What about the solubility thermodynamic at 80 min ([7]; 80 minutes, shaking in water at 25° C., read-out: Dissolved benomyl) of the same molecule?
Answer: 7 µg/mL (≈ 24.1 µM)

Question: And the solubility thermodynamic at 2 h ([7]; 120 minutes, shaking in water at 25° C., read-out: Dissolved benomyl)?
Answer: 8 µg/mL (≈ 27.6 µM)

Question: What about the solubility thermodynamic at 160 min ([7]; 160 minutes, shaking in water at 25° C., read-out: Dissolved benomyl) of the same molecule?
Answer: 9 µg/mL (≈ 31 µM)

Question: And the “further increase of the solubility caused by cyclodextrin” value ([7]; on addition of cyclodextrin, water 25° C.)?
Answer: 1.5-2 -fold

Question: And the “decomposition when dissolved in water” value ([4]; to methyl-benzimidazole carbamate)?
Answer: rapidly decomposes

Question: What about the solubility in water [4] of the same molecule?
Answer: poorly soluble in water

Question: With `CCN(CC)C(=O)SCc1ccc(Cl)cc1` [bentiocarb, S-4-chlorobenzyl-diethylthio carbamate] as the molecule, how does the “duration of pesticide activity” value [1] read?
Answer: remains sufficient for a longer period of time

Question: What about the “volatility of the active ingredient” value [2] of the same molecule?
Answer: significantly decreased

Question: For `N#Cc1c(Cl)cccc1Cl` [dichlobenyl, 2,6-dichloro-benzonitrile], which sublimation ([2]; uncomplexed, inhibited by forming complex with cyclodextrin) is on record?
Answer: easily sublimates

Question: What does the source list for `COP(=O)(OC)OC=C(Cl)Cl` [dichlorphos, 2,2--dichlorovinyl-dimethyl-phosphate]?
Answer: duration of pesticide activity [1]: remains sufficient for a longer period of time; volatility of the active ingredient [2]: significantly decreased

Question: Which solubility in water [4] does the source give for `COC(=O)Nc1nc2ccccc2[nH]1` [methyl-benzimidazole carbamate, 2-carbomethoxyamino-benzimidazole] here?
Answer: still less soluble in water

Question: For `CCSC(=O)N1CCCCCC1` [molinate, S-ethyl-N,N-hexamethylene-thiocarbamate], which “duration of pesticide activity” value [1] is on record?
Answer: remains sufficient for a longer period of time

Question: And the “volatility of the active ingredient” value [2]?
Answer: significantly decreased

Question: With `OC[C@H]1O[C@@H]2O[C@H]3[C@H](O)[C@@H](O)[C@@H](O[C@H]4[C@H](O)[C@@H](O)[C@@H](O[C@H]5[C@H](O)[C@@H](O)[C@@H](O[C@H]6[C@H](O)[C@@H](O)[C@@H](O[C@H]7[C@H](O)[C@@H](O)[C@@H](O[C@H]8[C@H](O)[C@@H](O)[C@@H](O[C@H]1[C@H](O)[C@H]2O)O[C@@H]8CO)O[C@@H]7CO)O[C@@H]6CO)O[C@@H]5CO)O[C@@H]4CO)O[C@@H]3CO` [β-cyclodextrin] as the molecule, how does the inhibition at 200 µg/mL ([8]; β-cyclodextrin 200 μg/ml) read?
Answer: 7%

Question: What about the inhibition at 400 µg/mL ([8]; β-cyclodextrin 400 μg/ml) of the same molecule?
Answer: 10%

Question: And the inhibition at 1500 µg/mL ([8]; β-cyclodextrin 1500 μg/ml)?
Answer: 12%

Question: And the inhibition at 3000 µg/mL ([8]; β-cyclodextrin 3000 μg/ml)?
Answer: 14%

Question: What about the inhibition at 200 µg/mL ([9]; β-cyclodextrin 200 μg/ml) of the same molecule?
Answer: 3%

Question: What about the inhibition at 400 µg/mL ([9]; β-cyclodextrin 400 μg/ml) of the same molecule?
Answer: 6%

Question: What about the inhibition at 1500 µg/mL ([9]; β-cyclodextrin 1500 μg/ml) of the same molecule?
Answer: 17%

Question: What about the inhibition at 3000 µg/mL ([9]; β-cyclodextrin 3000 μg/ml) of the same molecule?
Answer: 19%

Question: What about the inhibition at 200 µg/mL ([10]; β-cyclodextrin 200 μg/ml) of the same molecule?
Answer: 12%

Question: And the inhibition at 400 µg/mL ([10]; β-cyclodextrin 400 μg/ml)?
Answer: 12%

Question: And the inhibition at 1500 µg/mL ([10]; β-cyclodextrin 1500 μg/ml)?
Answer: 14%

Question: What about the inhibition at 3000 µg/mL ([10]; β-cyclodextrin 3000 μg/ml) of the same molecule?
Answer: 16%

Question: And the “formation of the propagative organs” value [11]?
Answer: inhibits the formation of the propagative organs
